PubChem BioAssay AID2060902 (Molecular Pharmacology Branch, DTP, NCI, 2025)

Tested on: 485368-065-R3-J5-PDC spheroids with HUVEC/MSC, viability
Test: Anticancer human tumor 485368-065-R3-J5-PDC patient-derived pancreatic carcinoma cell line growth inhibition [RAS]
Settings: for IC50: curve of first compound; for viability, T/C: stronger effect = lower value
How it was run: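 Agents were tested in combination matrices in half-log decrements from a top concentration at or near clinical Cmax (10 microM if undetermined). Targets were multi-cell spheroids of tumour lines plus HUVEC and MSC stromal cells.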

[1] = second compound 0.0316 µM, first compound 0.0316 µM
[2] = second compound 0.0316 µM, first compound 0.1 µM
[3] = second compound 0.0316 µM, first compound 0.316 µM
[4] = second compound 0.0316 µM, first compound 1 µM
[5] = second compound 0.1 µM, first compound 0.0316 µM
[6] = second compound 0.1 µM, first compound 0.1 µM
[7] = second compound 0.1 µM, first compound 0.316 µM
[8] = second compound 0.1 µM, first compound 1 µM
[9] = second compound 0.316 µM, first compound 0.0316 µM
[10] = second compound 0.316 µM, first compound 0.1 µM
[11] = second compound 0.316 µM, first compound 0.316 µM
[12] = second compound 0.316 µM, first compound 1 µM
[13] = second compound 1 µM, first compound 0.0316 µM
[14] = second compound 1 µM, first compound 0.1 µM
[15] = second compound 1 µM, first compound 0.316 µM
[16] = second compound 1 µM, first compound 1 µM
[17] = second compound 3.16 µM, first compound 0.0316 µM
[18] = second compound 3.16 µM, first compound 0.1 µM
[19] = second compound 3.16 µM, first compound 0.316 µM
[20] = second compound 3.16 µM, first compound 1 µM
[21] = second compound 10 µM, first compound 0.0316 µM
[22] = second compound 10 µM, first compound 0.1 µM
[23] = second compound 10 µM, first compound 0.316 µM
[24] = second compound 10 µM, first compound 1 µM
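Further: spheroids exposed to agents for seven days before readout.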

C=CC(=O)N1CCN(c2nc(OCC3CCCN3C)nc3c(F)c(-c4nc(N)cc(C)c4C(F)(F)F)c(Cl)cc23)C(C)C1 (stereo unspecified) + C#Cc1c(F)ccc2cc(O)cc(-c3ncc4c(N5CC6CCC(C5)N6)nc(OCC56CCCN5CC(F)C6)nc4c3F)c12
IC50 (second compound 0.0316 µM): > 1 µM
IC50 (second compound 0.1 µM): > 1 µM
IC50 (second compound 0.316 µM): > 1 µM
IC50 (second compound 1 µM): > 1 µM
IC50 (second compound 3.16 µM): 0.794 µM
IC50 (second compound 10 µM): < 0.00316 µM
viability, T/C (second compound 0.0316 µM, first compound 0.00316 µM): 101%
viability, T/C (second compound 0.0316 µM, first compound 0.01 µM): 95.6%
viability, T/C [1]: 112%
viability, T/C [2]: 106%
viability, T/C [3]: 100%
viability, T/C [4]: 107%
viability, T/C (second compound 0.1 µM, first compound 0.00316 µM): 102%
viability, T/C (second compound 0.1 µM, first compound 0.01 µM): 100%
viability, T/C [5]: 106%
viability, T/C [6]: 101%
viability, T/C [7]: 117%
viability, T/C [8]: 110%
viability, T/C (second compound 0.316 µM, first compound 0.00316 µM): 105%
viability, T/C (second compound 0.316 µM, first compound 0.01 µM): 104%
viability, T/C [9]: 93.6%
viability, T/C [10]: 98.5%
viability, T/C [11]: 103%
viability, T/C [12]: 101%
viability, T/C (second compound 1 µM, first compound 0.00316 µM): 94.3%
viability, T/C (second compound 1 µM, first compound 0.01 µM): 95.9%
viability, T/C [13]: 98.7%
viability, T/C [14]: 97.6%
viability, T/C [15]: 94.8%
viability, T/C [16]: 72.1%
viability, T/C (second compound 3.16 µM, first compound 0.00316 µM): 89.7%
viability, T/C (second compound 3.16 µM, first compound 0.01 µM): 83.2%
viability, T/C [17]: 81.7%
viability, T/C [18]: 72.3%
viability, T/C [19]: 71.2%
viability, T/C [20]: 44.4%
viability, T/C (second compound 10 µM, first compound 0.00316 µM): 38.1%
viability, T/C (second compound 10 µM, first compound 0.01 µM): 40.3%
viability, T/C [21]: 38.3%
viability, T/C [22]: 41.7%
viability, T/C [23]: 36.5%
viability, T/C [24]: 36.6%

CC(=O)OC12COC1CC(O)C1(C)C(=O)C(O)C3=C(C)C(OC(=O)C(O)C(NC(=O)OC(C)(C)C)c4ccccc4)CC(O)(C(OC(=O)c4ccccc4)C21)C3(C)C (stereo unspecified) + C#Cc1c(F)ccc2cc(O)cc(-c3ncc4c(N5CC6CCC(C5)N6)nc(OCC56CCCN5CC(F)C6)nc4c3F)c12
IC50 (second compound 0.0316 µM): < 0.0316 µM
IC50 (second compound 0.1 µM): < 0.0316 µM
IC50 (second compound 0.316 µM): < 0.0316 µM
IC50 (second compound 1 µM): < 0.0316 µM
IC50 (second compound 3.16 µM): < 0.0316 µM
IC50 (second compound 10 µM): < 0.0316 µM
viability, T/C [1]: 12.5%
viability, T/C [2]: 12.5%
viability, T/C [3]: 13%
viability, T/C [4]: 12.7%
viability, T/C (second compound 0.0316 µM, first compound 3.16 µM): 18.7%
viability, T/C (second compound 0.0316 µM, first compound 10 µM): 23.6%
viability, T/C [5]: 11%
viability, T/C [6]: 10.2%
viability, T/C [7]: 14.2%
viability, T/C [8]: 14.4%
viability, T/C (second compound 0.1 µM, first compound 3.16 µM): 19.8%
viability, T/C (second compound 0.1 µM, first compound 10 µM): 16.9%
viability, T/C [9]: 13%
viability, T/C [10]: 13.3%
viability, T/C [11]: 17.1%
viability, T/C [12]: 14.9%
viability, T/C (second compound 0.316 µM, first compound 3.16 µM): 15.4%
viability, T/C (second compound 0.316 µM, first compound 10 µM): 14.4%
viability, T/C [13]: 11.2%
viability, T/C [14]: 13.9%
viability, T/C [15]: 12.4%
viability, T/C [16]: 16.5%
viability, T/C (second compound 1 µM, first compound 3.16 µM): 14.7%
viability, T/C (second compound 1 µM, first compound 10 µM): 26.3%
viability, T/C [17]: 11.3%
viability, T/C [18]: 9.14%
viability, T/C [19]: 12%
viability, T/C [20]: 15.7%
viability, T/C (second compound 3.16 µM, first compound 3.16 µM): 19.1%
viability, T/C (second compound 3.16 µM, first compound 10 µM): 16.1%
viability, T/C [21]: 12.9%
viability, T/C [22]: 11.2%
viability, T/C [23]: 10.8%
viability, T/C [24]: 14.3%
viability, T/C (second compound 10 µM, first compound 3.16 µM): 14.7%
viability, T/C (second compound 10 µM, first compound 10 µM): 19.1%

CCc1c2c(nc3ccc(O)cc13)-c1cc3c(c(=O)n1C2)COC(=O)[C@]3(O)CC + C#Cc1c(F)ccc2cc(O)cc(-c3ncc4c(N5CC6CCC(C5)N6)nc(OCC56CCCN5CC(F)C6)nc4c3F)c12
IC50 (second compound 0.0316 µM): 0.00201 µM
IC50 (second compound 0.1 µM): 0.00204 µM
IC50 (second compound 0.316 µM): 0.00204 µM
IC50 (second compound 1 µM): 0.00219 µM
IC50 (second compound 3.16 µM): 0.00166 µM
IC50 (second compound 10 µM): < 0.000949 µM
viability, T/C (second compound 0.0316 µM, first compound 0.000949 µM): 79.6%
viability, T/C (second compound 0.0316 µM, first compound 0.003 µM): 34%
viability, T/C (second compound 0.0316 µM, first compound 0.00949 µM): 14.3%
viability, T/C (second compound 0.0316 µM, first compound 0.03 µM): 7.01%
viability, T/C (second compound 0.0316 µM, first compound 0.0949 µM): 5.19%
viability, T/C (second compound 0.0316 µM, first compound 0.3 µM): 2.88%
viability, T/C (second compound 0.1 µM, first compound 0.000949 µM): 82.5%
viability, T/C (second compound 0.1 µM, first compound 0.003 µM): 33.7%
viability, T/C (second compound 0.1 µM, first compound 0.00949 µM): 12.5%
viability, T/C (second compound 0.1 µM, first compound 0.03 µM): 7.37%
viability, T/C (second compound 0.1 µM, first compound 0.0949 µM): 4.36%
viability, T/C (second compound 0.1 µM, first compound 0.3 µM): 3.26%
viability, T/C (second compound 0.316 µM, first compound 0.000949 µM): 82.5%
viability, T/C (second compound 0.316 µM, first compound 0.003 µM): 33.4%
viability, T/C (second compound 0.316 µM, first compound 0.00949 µM): 13.3%
viability, T/C (second compound 0.316 µM, first compound 0.03 µM): 5.82%
viability, T/C (second compound 0.316 µM, first compound 0.0949 µM): 5.07%
viability, T/C (second compound 0.316 µM, first compound 0.3 µM): 3.14%
viability, T/C (second compound 1 µM, first compound 0.000949 µM): 91.2%
viability, T/C (second compound 1 µM, first compound 0.003 µM): 33.6%
viability, T/C (second compound 1 µM, first compound 0.00949 µM): 14.8%
viability, T/C (second compound 1 µM, first compound 0.03 µM): 6.95%
viability, T/C (second compound 1 µM, first compound 0.0949 µM): 4.29%
viability, T/C (second compound 1 µM, first compound 0.3 µM): 3.15%
viability, T/C (second compound 3.16 µM, first compound 0.000949 µM): 71.5%
viability, T/C (second compound 3.16 µM, first compound 0.003 µM): 26.7%
viability, T/C (second compound 3.16 µM, first compound 0.00949 µM): 12.9%
viability, T/C (second compound 3.16 µM, first compound 0.03 µM): 7.69%
viability, T/C (second compound 3.16 µM, first compound 0.0949 µM): 4.04%
viability, T/C (second compound 3.16 µM, first compound 0.3 µM): 2.84%
viability, T/C (second compound 10 µM, first compound 0.000949 µM): 28.2%
viability, T/C (second compound 10 µM, first compound 0.003 µM): 19.4%
viability, T/C (second compound 10 µM, first compound 0.00949 µM): 11.2%
viability, T/C (second compound 10 µM, first compound 0.03 µM): 5.94%
viability, T/C (second compound 10 µM, first compound 0.0949 µM): 3.93%
viability, T/C (second compound 10 µM, first compound 0.3 µM): 3.41%
